Laboratory results from PubChem BioAssay AID192 (DTP/NCI, 2004).
Several values for one entry are separate records, joined by “and”; a condition that tells them apart may be missing. Identical values can stand only once. Inconclusive results and toxic doses are left out.

Test system: BDF1 mice, B16 melanoma ip, median survival T/C
Experiment: NCI In Vivo Anticancer Drug Screen. Data for tumor model B16 Melanoma (intraperitoneal) in B6D2F1 (BDF1) mice
Conditions: endpoint: median survival time, higher = longer survival
Procedure, shortened: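 Compounds were tested in mice carrying transplantable tumors. Survival or tumor size was recorded, and each value is the treated-group measurement (T) divided by that of the vehicle-treated control group (C).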

[1] = dose: 100.0 mg/kg/injection, schedule: Q01DX009 (ip), vehicle: Klucel (hydroxypropylcellulose) (HPC)
[2] = dose: 200.0 mg/kg/injection, schedule: Q04DX003 (ip), vehicle: Klucel (hydroxypropylcellulose) (HPC)
[3] = dose: 50.0 mg/kg/injection, schedule: Q01DX009 (ip), vehicle: saline with Tween-80
[4] = dose: 100.0 mg/kg/injection, schedule: Q01DX009 (ip), vehicle: saline with Tween-80
[5] = dose: 200.0 mg/kg/injection, schedule: Q01DX009 (ip), vehicle: saline with Tween-80

## CCCCCCCCCCCCCCCC(=O)OCC1OC(n2ccc(N)nc2=O)C(O)C1O (stereo unspecified)
dose: 1.0 mg/kg/injection, schedule: Q01DX009 (ip), vehicle: saline with Tween-80
  T/C: 103 % of control
dose: 2.0 mg/kg/injection, schedule: Q01DX009 (ip), vehicle: saline with Tween-80
  T/C: 114 % of control
dose: 2.5 mg/kg/injection, schedule: Q01DX001 (ip), vehicle: saline with Tween-80
  T/C: 99 % of control
dose: 4.0 mg/kg/injection, schedule: Q01DX009 (ip), vehicle: saline with Tween-80
  T/C: 116 % of control
dose: 5.0 mg/kg/injection, schedule: Q01DX001 (ip), vehicle: saline with Tween-80
  T/C: 100 % of control
dose: 10.0 mg/kg/injection, schedule: Q01DX001 (ip), vehicle: saline with Tween-80
  T/C: 110 % of control
dose: 20.0 mg/kg/injection, schedule: Q01DX001 (ip), vehicle: saline with Tween-80
  T/C: 104 % of control
dose: 25.0 mg/kg/injection, schedule: Q04DX003 (ip), vehicle: saline with Tween-80
  T/C: 122 % of control
dose: 30.0 mg/kg/injection, schedule: Q01DX009 (ip), vehicle: saline with Tween-80
  T/C: 170 % of control
dose: 37.5 mg/kg/injection, schedule: Q01DX001 (ip), vehicle: saline
  T/C: 152 % of control
dose: 75.0 mg/kg/injection, schedule: Q01DX001 (ip), vehicle: saline
  T/C: 186 % of control

## Cc1cc2nc(CO)[nH]c2cc1C
[1]
  T/C: 111 % of control
dose: 100.0 mg/kg/injection, schedule: Q04DX003 (ip), vehicle: Klucel (hydroxypropylcellulose) (HPC)
  T/C: 100 % of control
[2]
  T/C: 94 % of control
dose: 400.0 mg/kg/injection, schedule: Q04DX003 (ip), vehicle: Klucel (hydroxypropylcellulose) (HPC)
  T/C: 97 % of control

## O=c1[nH]cc(F)c(=O)[nH]1
dose: 0.5 mg/kg/injection, schedule: Q01DX009 (ip), vehicle: saline
  T/C: 107 % of control
dose: 1.25 mg/kg/injection, schedule: Q03HX024 (ip), vehicle: saline
  T/C: 110 % of control
dose: 2.0 mg/kg/injection, schedule: Q01DX009 (ip), vehicle: saline
  T/C: 118 % of control
dose: 2.5 mg/kg/injection, schedule: Q01DX017 (ip), vehicle: saline
  T/C: 104 % of control
dose: 2.5 mg/kg/injection, schedule: Q03HX024 (ip), vehicle: saline
  T/C: 112 % of control
dose: 3.12 mg/kg/injection, schedule: Q01DX009 (ip), vehicle: saline
  T/C: 102 % of control
dose: 3.8 mg/kg/injection, schedule: Q04DX003 (ip), vehicle: saline
  T/C: 116 % of control
dose: 5.0 mg/kg/injection, schedule: Q01DX001 (ip), vehicle: saline
  T/C: 105 % of control
dose: 5.0 mg/kg/injection, schedule: Q01DX009 (ip), vehicle: saline with Tween-80
  T/C: 104 % of control
dose: 5.0 mg/kg/injection, schedule: Q01DX017 (ip), vehicle: saline
  T/C: 107 % of control
dose: 5.0 mg/kg/injection, schedule: Q05DX010 (ip), vehicle: saline
  T/C: 115 % of control
dose: 6.25 mg/kg/injection, schedule: Q01DX009 (ip), vehicle: saline
  T/C: 91 % of control
dose: 7.0 mg/kg/injection, schedule: Q01DX009 (ip), vehicle: saline
  T/C: 117 % of control
dose: 7.5 mg/kg/injection, schedule: Q01DX009 (ip), vehicle: saline
  T/C: 117 % of control
dose: 7.5 mg/kg/injection, schedule: Q04DX003 (ip), vehicle: saline
  T/C: 116 % of control
dose: 7.8 mg/kg/injection, schedule: Q04DX003 (ip), vehicle: saline
  T/C: 104 % of control
dose: 10.0 mg/kg/injection, schedule: Q01DX001 (ip), vehicle: saline
  T/C: 107 % of control
dose: 10.0 mg/kg/injection, schedule: Q01DX009 (ip), vehicle: saline with Tween-80
  T/C: 104 % of control and 111 % of control and 114 % of control
dose: 10.0 mg/kg/injection, schedule: Q05DX010 (ip), vehicle: saline
  T/C: 120 % of control
dose: 12.0 mg/kg/injection, schedule: Q01DX009 (ip), vehicle: saline
  T/C: 115 % of control
dose: 12.5 mg/kg/injection, schedule: Q01DX009 (ip), vehicle: saline
  T/C: 123 % of control
dose: 12.5 mg/kg/injection, schedule: Q04DX005 (ip), vehicle: saline
  T/C: 107 % of control
dose: 13.0 mg/kg/injection, schedule: Q04DX003 (ip), vehicle: saline
  T/C: 108 % of control
dose: 15.0 mg/kg/injection, schedule: Q01DX009 (ip), vehicle: saline
  T/C: 121 % of control and 122 % of control
dose: 15.0 mg/kg/injection, schedule: Q04DX003 (ip), vehicle: saline
  T/C: 122 % of control
dose: 20.0 mg/kg/injection, schedule: Q01DX001 (ip), vehicle: saline
  T/C: 115 % of control
dose: 20.0 mg/kg/injection, schedule: Q01DX009 (ip), vehicle: saline with Tween-80
  T/C: 116 % of control and 119 % of control
dose: 20.0 mg/kg/injection, schedule: Q01DX017 (ip), vehicle: saline
  T/C: 161 % of control and 169 % of control
dose: 21.6 mg/kg/injection, schedule: Q04DX003 (ip), vehicle: saline
  T/C: 103 % of control
dose: 25.0 mg/kg/injection, schedule: Q01DX009 (ip), vehicle: saline
  T/C: 119 % of control
dose: 25.0 mg/kg/injection, schedule: Q04DX003 (ip), vehicle: saline
  T/C: 122 % of control
dose: 25.0 mg/kg/injection, schedule: Q04DX005 (ip), vehicle: saline
  T/C: 117 % of control
dose: 30.0 mg/kg/injection, schedule: Q01DX009 (ip), vehicle: saline
  T/C: 124 % of control
dose: 30.0 mg/kg/injection, schedule: Q04DX003 (ip), vehicle: saline
  T/C: 117 % of control and 122 % of control
dose: 36.0 mg/kg/injection, schedule: Q04DX003 (ip), vehicle: saline
  T/C: 104 % of control
dose: 40.0 mg/kg/injection, schedule: Q01DX001 (ip), vehicle: saline
  T/C: 120 % of control
dose: 40.0 mg/kg/injection, schedule: Q01DX009 (ip), vehicle: saline with Tween-80
  T/C: 88 % of control and 97 % of control
dose: 50.0 mg/kg/injection, schedule: Q01DX001 (ip), vehicle: saline
  T/C: 110 % of control
dose: 50.0 mg/kg/injection, schedule: Q04DX003 (ip), vehicle: saline
  T/C: 120 % of control
dose: 50.0 mg/kg/injection, schedule: Q04DX005 (ip), vehicle: saline
  T/C: 115 % of control
dose: 60.0 mg/kg/injection, schedule: Q01DX009 (ip), vehicle: saline
  T/C: 39 % of control
dose: 60.0 mg/kg/injection, schedule: Q04DX003 (ip), vehicle: saline
  T/C: 52 % of control and 119 % of control
dose: 90.0 mg/kg/injection, schedule: Q04DX003 (ip), vehicle: saline
  T/C: 123 % of control
dose: 100.0 mg/kg/injection, schedule: Q01DX001 (ip), vehicle: saline
  T/C: 110 % of control
dose: 120.0 mg/kg/injection, schedule: Q04DX003 (ip), vehicle: saline
  T/C: 93 % of control
dose: 200.0 mg/kg/injection, schedule: Q01DX001 (ip), vehicle: saline
  T/C: 110 % of control
dose: 240.0 mg/kg/injection, schedule: Q04DX003 (ip), vehicle: saline
  T/C: 73 % of control
dose: 480.0 mg/kg/injection, schedule: Q04DX003 (ip), vehicle: saline
  T/C: 47 % of control

## CN(C)C(=S)Nc1ccccc1
[3]
  T/C: 95 % of control
[4]
  T/C: 95 % of control
[5]
  T/C: 90 % of control

## COc1cc(C)c2c(=O)c3c(oc2c1)C(=O)c1c(O)c(OC)cc(O)c1C3=O
dose: 25.0 mg/kg/injection, schedule: Q01DX009 (ip), vehicle: saline with Tween-80
  T/C: 105 % of control
[3]
  T/C: 101 % of control
[4]
  T/C: 96 % of control
[5]
  T/C: 100 % of control

## CCN(CC)CCOCCO
dose: 25.0 mg/kg/injection, schedule: Q01DX009 (ip), vehicle: suspension in saline
  T/C: 107 % of control
dose: 50.0 mg/kg/injection, schedule: Q01DX009 (ip), vehicle: suspension in saline
  T/C: 95 % of control
dose: 100.0 mg/kg/injection, schedule: Q01DX009 (ip), vehicle: suspension in saline
  T/C: 105 % of control
dose: 200.0 mg/kg/injection, schedule: Q01DX009 (ip), vehicle: suspension in saline
  T/C: 96 % of control

## CC(Cl)CN(CC(C)Cl)C(=O)OCC(NC(=O)OCc1ccccc1)C(=O)OCc1ccccc1 (stereo unspecified)
dose: 12.5 mg/kg/injection, schedule: Q04DX003 (ip), vehicle: Klucel (hydroxypropylcellulose) (HPC)
  T/C: 86 % of control
dose: 25.0 mg/kg/injection, schedule: Q04DX003 (ip), vehicle: Klucel (hydroxypropylcellulose) (HPC)
  T/C: 86 % of control
dose: 50.0 mg/kg/injection, schedule: Q04DX003 (ip), vehicle: Klucel (hydroxypropylcellulose) (HPC)
  T/C: 86 % of control
[1]
  T/C: 97 % of control
dose: 200.0 mg/kg/injection, schedule: Q01DX009 (ip), vehicle: Klucel (hydroxypropylcellulose) (HPC)
  T/C: 97 % of control
[2]
  T/C: 93 % of control
dose: 400.0 mg/kg/injection, schedule: Q01DX009 (ip), vehicle: Klucel (hydroxypropylcellulose) (HPC)
  T/C: 88 % of control
